In patent publication US11643393B2, “Integrin antagonists” (The General Hospital Corporation, priority 2018, dated 2023):
Entries after “also recorded” stand apart in the source; their conditions may differ. Like-named read-outs stand apart in the source and are kept apart here. Positions of bridges follow the written chain, without caps; N, C: chain ends. Non-standard residues stand in square brackets, D forms with d. Residues, ends and D or L forms follow the SMILES beside them. hArg = N=C(N)NCCCC[C@H](N)C(=O)O; Mpa = O=C(O)CCS

Assays:
human platelets [1] = assay: Agonist-induced platelet aggregation in whole human blood (impedance, Chrono-Log 700); assay type: cell-based; details: for IC50: Homo sapiens, Platelet
Procedure: (§1) Platelet aggregation and ATP secretion in whole blood were performed in a Chrono-Log model 700 two-channel lumi-aggregation system following the manufacturer's instructions. Blood was drawn directly into 3.2% sodium citrate from healthy volunteers, and blood was used within 3 hours. None of the subjects were taking any medications for at least 10 days prior. For impedance aggregation measurements, 0.5 mL of blood was mixed with 0.5 mL physiologic saline supplemented with inhibitors and incubated at 37° C. for 5 minutes without stirring. Measurements were performed with stirring at 1,200 rpm at 37° C. Values for each data point represent impedance measurements following application of agonist integrated over 5 minutes. Data points for an individual dose curve were serially collected from a single draw and analyzed with SigmaPlot (Systat Software, San Jose, Calif.) using a least-square fit to a logistic curve and the IC50 value determined from the fitted parameter. ATP secretion proceeded similarly except that 0.45 mL of whole blood were added to 0.45 mL of saline supplemented with various concentrations of Hr10 or eptifibatide to produce the desired concentration at 1.0 mL. Following incubation for 5 minutes at 37° C., 100 μL of Chrono-lume reagent was added and aggregation initiated. The luminescence signal was quantified with a non-aggregated sample supplemented with an ATP standard.
Platelet aggregation was measured in whole blood by impedance increase with a Chrono-log model 700 according to the manufacturer's protocol. Citrated whole blood was diluted with an equal volume of physiologic saline (Sigma) and incubated for 5 min at 37° C. without stirring. Inhibitors were added to final concentration and the cuvette stirred at 1,200 rpm. Following establishment of stable baseline, ADP (20 μM) was added and tracings recorded for 6 min. The extent of aggregation was determined as the integrated impedance over 5 min.

αIIbβ3 [2] = biological target: T1, αIIbβ3 (Homo sapiens, UniProt P05106+P08514); assay: Displacement of labeled Hr10 binding to inactive or PT-25-activated αIIbβ3-K562 cells (FACS); set-up: expressed in transfected cells; host or cells: K562; details: for IC50: Alexa488-labeled Hr10, 1 mM Mg2+ and Ca2+
T1 sequence (P08514 32-887 limits assumed): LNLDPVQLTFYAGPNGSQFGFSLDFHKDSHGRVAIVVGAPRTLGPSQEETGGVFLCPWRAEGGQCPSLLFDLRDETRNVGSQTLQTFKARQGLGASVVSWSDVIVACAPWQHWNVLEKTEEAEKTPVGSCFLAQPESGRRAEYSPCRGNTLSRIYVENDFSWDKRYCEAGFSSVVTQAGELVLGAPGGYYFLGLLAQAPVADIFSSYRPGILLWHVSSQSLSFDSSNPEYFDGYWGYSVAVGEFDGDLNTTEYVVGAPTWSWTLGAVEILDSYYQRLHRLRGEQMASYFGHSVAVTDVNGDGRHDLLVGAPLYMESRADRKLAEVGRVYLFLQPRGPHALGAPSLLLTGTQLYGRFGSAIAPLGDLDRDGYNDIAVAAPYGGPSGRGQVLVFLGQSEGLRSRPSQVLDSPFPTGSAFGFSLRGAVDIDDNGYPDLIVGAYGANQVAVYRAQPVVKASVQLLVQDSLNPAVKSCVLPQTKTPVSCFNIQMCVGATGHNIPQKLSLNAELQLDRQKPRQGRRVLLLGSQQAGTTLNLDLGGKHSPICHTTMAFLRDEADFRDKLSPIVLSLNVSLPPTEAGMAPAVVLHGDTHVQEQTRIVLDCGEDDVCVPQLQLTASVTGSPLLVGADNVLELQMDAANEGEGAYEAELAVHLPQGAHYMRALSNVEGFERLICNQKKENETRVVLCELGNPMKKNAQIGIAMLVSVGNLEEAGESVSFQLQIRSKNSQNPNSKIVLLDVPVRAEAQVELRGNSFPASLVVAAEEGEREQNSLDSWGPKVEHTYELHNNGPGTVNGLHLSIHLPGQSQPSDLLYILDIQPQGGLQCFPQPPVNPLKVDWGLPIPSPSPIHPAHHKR
T1 sequence (P08514 891-1039 partner limits assumed): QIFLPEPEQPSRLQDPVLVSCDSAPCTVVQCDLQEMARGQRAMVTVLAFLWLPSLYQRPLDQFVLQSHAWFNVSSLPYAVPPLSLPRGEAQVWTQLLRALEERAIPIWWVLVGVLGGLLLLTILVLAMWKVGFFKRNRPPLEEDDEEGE
T1 sequence (P05106 27-788): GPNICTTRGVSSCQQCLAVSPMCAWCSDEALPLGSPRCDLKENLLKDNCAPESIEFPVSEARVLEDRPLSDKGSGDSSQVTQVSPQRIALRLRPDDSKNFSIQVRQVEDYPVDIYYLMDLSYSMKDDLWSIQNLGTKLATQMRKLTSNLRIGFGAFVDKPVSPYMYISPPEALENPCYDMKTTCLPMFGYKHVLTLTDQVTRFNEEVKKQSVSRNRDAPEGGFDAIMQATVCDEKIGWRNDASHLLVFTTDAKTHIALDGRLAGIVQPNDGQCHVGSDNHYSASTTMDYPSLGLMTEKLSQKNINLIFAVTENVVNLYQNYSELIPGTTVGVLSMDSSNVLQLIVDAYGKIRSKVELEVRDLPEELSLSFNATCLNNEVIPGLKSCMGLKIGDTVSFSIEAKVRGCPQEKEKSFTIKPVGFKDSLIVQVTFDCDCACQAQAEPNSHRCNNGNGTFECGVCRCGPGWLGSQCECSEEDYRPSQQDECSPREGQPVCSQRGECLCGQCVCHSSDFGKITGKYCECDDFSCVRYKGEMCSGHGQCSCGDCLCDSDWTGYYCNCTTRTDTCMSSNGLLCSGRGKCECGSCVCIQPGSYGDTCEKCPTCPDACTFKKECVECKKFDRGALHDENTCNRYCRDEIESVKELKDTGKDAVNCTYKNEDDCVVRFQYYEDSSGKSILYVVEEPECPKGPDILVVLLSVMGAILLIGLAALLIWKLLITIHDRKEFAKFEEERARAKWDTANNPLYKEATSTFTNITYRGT
Procedure: […] Cells were washed, fixed in 2% paraformaldehyde and analyzed by flow cytometry. Ligand binding was expressed as […] of cells in the absence of competitor ligands. Mean and SD from three independent experiments were calculated, and compared using Student's t-test.

αIIbβ3 [3] = biological target: T1, αIIbβ3; assay: Binding of conformation-sensitive mAbs AP5 / LIBS-1 to human platelets; assay type: cell-based; details: for induction of AP5 epitope expression: tirofiban 150 nM
αIIbβ3 [4] = biological target: T1, αIIbβ3; assay: Displacement of labeled fibrinogen binding to αIIbβ3-K562 cells (flow cytometry); set-up: expressed in transfected cells; host or cells: K562
Procedure: For ligand binding competition studies, 100 μL of PT-25-activated αIIbpβ3-K562 (1×10^6) were incubated for 30 minutes at RT with serially diluted concentrations of Hr10, hFN10, or eptifibatide in the presence of 0.5 μM Alexa647-conjugated FB. Cells were washed, fixed in 2% paraformaldehyde and analyzed by flow cytometry. Ligand binding was expressed as […] of cells in the absence of competitor ligands. Mean and SD from three independent experiments were calculated, and compared using Student's t-test.

[5] = system: human platelet-rich plasma (PRP); assay: Thrombin-induced clot retraction; assay type: cell-based; details: for effect on clot retraction induced by α-thrombin: FIG. 5, tirofiban 1.5 μM, m-tirofiban 15 μM, α-thrombin 0.5 unit/mL; for kinetics of thrombin-induced clot retraction: FIG. 6E, three experiments, vs buffer control
Procedure: 750 μL of Tyrode's buffer supplemented with inhibitor was mixed in a glass culture tube with 200 μL of PRP and 5 μL red blood cells. Clotting was initiated by addition of 50 μL thrombin at 10 units/ml in saline and a sealed Pasteur pipette secured in the tube center. Digital photographs of the experiment were taken at 15-minute intervals over 2 hours. Images were analyzed with ImageJ software to determine the area occupied by the clot and plasma. Plots of the relative areas and linear regressions were performed with SigmaPlot (Systat Software, San Jose, Calif.).
No ligands were added to the control (FIG. 5C) tube. Photographs were taken immediately after thrombin addition (FIG. 5A) and at the end of the reaction (FIG. 5B). Clot retraction around the central glass rod placed in each glass test tube before thrombin addition is shown. 5 μL of red blood cells were added per 1 mL reaction to enhance the color contrast for photography.
Clot retraction normally helps secure hemostasis in vivo as evidenced by increased bleeding in mice with impaired clot retraction (see e.g., Leon et al, Blood 110, 3183-3191, doi: 10.1182/blood-2007-03-080184 (2007)), or in recipients of any of the three anti-αIIbβ3 drugs (see e.g., Tutwiler et al, Biophys. J. 112, 714-723 (2017); Osdoit et al, J. Biol. Chem. 276, 6703-6710 (2001); Haling et al, Blood 117, 1719-1722 (2011)). The effects of Hr10 and eptifibatide on thrombin-induced clot retraction in fresh human platelet-rich plasma (PRP) (see e.g., Tucker et al, Methods Mol. Biol. 788, 101-107 (2012)) were compared. The kinetics of clot retraction were determined from quantification of serial images of the reaction acquired every 15 minutes for the 2-hour duration of the assay. […] Thrombolysis, 15, 71-80 (2003).

[6] = system: vWF^RH/RH NSG mice infused with human platelets; assay: Cremaster laser-induced arteriolar injury thrombosis in humanized mice; assay type: in vivo; details: eptifibatide 5 μg/mouse, Hr10 60 μg/mouse (equimolar), infused 5 min prior to injury; FIG. 13A
Procedure: Intravital microscopy was performed as previously described (see e.g., Celi et al, J. Thromb. Haemost. 1, 60-68 (2003); and Neyman et al, Blood, 112, 1101-1108 (2008)). vWF^RH/RHNSG male mice were studied after being anesthetized using sodium pentobarbital (80 mg/kg) injected intraperitoneally. Mice were maintained under anesthesia with the same anesthetic delivered via a catheterized jugular vein at 5 mg/mL throughout the experiment. The cremaster muscle was surgically exteriorized and continuously superfused with a physiological buffer (PBS containing 0.9 mM CaCl2 and 0.49 mM MgCl2) maintained at 37° C. throughout the entire experiment and equilibrated with a mixture of 95% N2 and 5% CO2. Human platelets, 400 million per mouse, were labeled with mouse anti-human CD41 F(ab′)2 (BD Biosciences) conjugated to Alexa Fluor-488 and infused into the jugular vein, followed by Alexa Fluor-647 rat anti-mouse CD41 F(ab′)2 (Thermo Fisher) to detect endogenous mouse platelets (see e.g., Fuentes et al, J. Clin. Invest. 126, 483-494 (2016)). Vascular injury was induced with an SRS NL100 pulsed nitrogen dye laser (440 nm) focused on the vessel wall through the microscope objective. […] Intensity of the fluorescent signal was used to measure incorporated platelets (see e.g., Neyman et al, Blood 112, 1101-1108 (2008). Eight injuries were made in each of four mice in each group.

human platelets [7] = assay: ADP-induced surface expression of CD62P and CD63 on platelets; assay type: cell-based; details: 1.5 μM; ADP 20 μM; FIG. 11F
Procedure: αVβ3-K562 cells or transiently transfected HEK293T (0.5×10^6 in 100 μL WB) were incubated in the absence or presence of unlabeled Hr10 or eptifibatide, each at 1.5 μM, for 20 min at RT. Alexa647-labeled AP5 Fab or unlabeled anti-LIBS-1 (each to 10 μg/mL) were added, and cells incubated for an additional 30 min before washing. Alexa647-labeled AP3 was used for normalization of integrin expression. APC-labeled goat anti-mouse Fc-specific antibody was added to anti-LIBS-1-bound cells for an additional 30 min at 4° C., cells washed and processed for flow cytometry. Binding of anti-CD62 and anti-CD63 mAbs to platelets was performed by incubating (20 min, RT) 100 μL of ligand-pretreated 3.2% sodium citrate whole blood with either Alexa488-labeled mAb (at 10 μg/mL) in the presence of 10 μg/mL Alexa647-labeled anti-CD42b. Cells were fixed in 2% paraformaldehyde and CD62 and CD63 expression was analyzed by flow cytometry in the CD42b positive population.

human platelets [8] = assay: ADP-induced ATP secretion from dense granules in whole blood; assay type: cell-based; details: 1.5 μM; ADP 20 μM; FIG. 11E
Procedure: as §1

[9] = biological target: T2, αIIbβ3 on resting platelets (Homo sapiens, UniProt P05106+P08514); details: Schror & Weber 2003, read-out: affinity of eptifibatide to αIIbβ3 on resting platelets (kD); cited from earlier work
T2 construct: host or cells: resting platelets
T2 sequence (P08514 32-887 limits assumed): as the sequence (P08514 32-887 limits assumed) above
T2 sequence (P08514 891-1039 partner limits assumed): as the sequence (P08514 891-1039 partner limits assumed) above
T2 sequence (P05106 27-788): as the sequence (P05106 27-788) above

[10] = FIG. 6D, M-tirofiban 1.5 μM, human platelets

Row | Compound | IC50 (human platelets [1]; read-out: IC50, human platelet aggregation induced by ADP) [nM] | reduction in affinity of M-tirofiban vs. tirofiban (human platelets [1]; from fibrinogen displacement and platelet aggregation assays) [fold] | binding affinity to inactive vs. active αIIbβ3 (αIIbβ3 [2]; FIGS. 6F-6G, 12C) | IC50 (αIIbβ3 [2]; active αIIbβ3, read-out: IC50, displacement of labeled Hr10 binding to mAb PT-25-activated αIIbβ3-K562) [nM] | IC50 (αIIbβ3 [2]; inactive αIIbβ3, read-out: IC50, displacement of labeled Hr10 binding to inactive αIIbβ3-K562) [nM] | activating conformational changes in αIIbβ3 reported by AP5 binding (αIIbβ3 [3]; FIG. 4, human platelets in PRP, saturating amounts, absence or presence of 20 μM ADP) | effect on ADP-induced AP5 expression (αIIbβ3 [3]; FIG. 6D, M-tirofiban 1.5 μM, ADP 5 μM added before or after) | induction of AP5 epitope expression (αIIbβ3 [3]; [10]) | IC50 (αIIbβ3 [4]; FIG. 6B, mean±S.E., n=4 experiments, read-out: IC50, displacement of labeled fibrinogen bound to preactivated αIIbβ3-K562) [nM] | effect on clot retraction induced by α-thrombin [5] | kinetics of thrombin-induced clot retraction [5] | nascent occlusive thrombus formation at sites of laser-induced arteriolar injury [6] | ADP-induced secretion from platelet α-granules (CD62P expression) and lysosomes (CD63 expression) (human platelets [7]) | conformational changes in αIIbβ3 reported by binding of mAbs AP5 and LIBS-1 (αIIbβ3 [3]; FIG. 8D, 1.5 μM, human platelets, absence or presence of 5 μM ADP) | inhibition of ADP-induced ATP secretion from dense granules in whole blood (human platelets [8]) [%] | Kd [9] [nM] | IC50 (αIIbβ3 [4]; FIG. 8C, preactivated αIIbβ3-K562, mean S.E., n=3, read-out: IC50, inhibition of binding of Alexa647-labeled soluble FB to activated αIIbβ3) [nM] | kinetics of thrombin-induced clot retraction vs. buffer ([5]; FIGS. 12A-12B, fresh human PRP, 2-hour assay) | IC50 (human platelets [1]; FIG. 6C, ADP 20 μM, mean±S.E., n=5, three donors, read-out: IC50, human platelet aggregation induced by ADP) [nM] | IC50 (human platelets [1]; summary of FIGS. 6B-6C, ADP 20 μM, read-out: Prevention of ADP-induced human platelet aggregation, concentration range) [nM]
1 | O=C(N[C@@H](Cc1ccc(OCCCCC2CCNCC2)cc1)C(=O)O)c1nc2ccccc2o1 [M-tirofiban, OC(═O)[C@H](CC1═CC═C(OCCCCC2CCNCC2)C═C1)NC(═O)C1═NC2═C(O1)C ═CC═C2] | 18.5 ± 5.4 | ~10 | equivalent binding affinities to inactive and active | 247 ± 29.3 | 257 ± 88 | did not induce the activating shape-shifts | suppressed ADP-induced AP5 expression | did not induce AP5 expression; also recorded: No significant differences were found between B and M | 30.9 ± 3.3 | reduced clot retraction minimally | did not; also recorded: not different between buffer control (contr.) and M-tirofiban | – | – | – | – | – | – | – | – | –
2 | N=C(N)NCCCC[C@@H]1NC(=O)CCSSC[C@@H](C(N)=O)NC(=O)[C@@H]2CCCN2C(=O)[C@H](Cc2c[nH]c3ccccc23)NC(=O)[C@H](CC(=O)O)NC(=O)CNC1=O [eptifibatide] ([Mpa][hArg]GDWPC-NH2; disulfide 1-7) | – | – | – | – | – | – | – | – | – | – | – | completely preventing nascent occlusive thrombus formation | did not significantly alter | induced conformational changes in αIIbβ3 | 60±200 | 120 | 73.2 ± 7 | clot retraction was significantly reduced vs buffer; also recorded: significantly blocked clot retraction | – | –
3 | CCCCS(=O)(=O)N[C@@H](Cc1ccc(OCCCCC2CCNCC2)cc1)C(=O)O [tirofiban] | – | – | – | – | – | – | – | induced expression of the AP5 epitope | – | completely blocked clot retraction | effectively blocked thrombin-induced clot retraction | – | – | – | – | – | – | – | 1.41 ± 0.23 | 1.5 to 2
